Where two headings read alike, the source gives them in different places.
Biological target: T1, Human GLP-1 receptor (Homo sapiens, UniProt P43220)
T1 construct: expressed in transfected cells
Experiment: Measurement of GLP-1 receptor agonist activity (cAMP assay)
Assay type: cell-based
Experimental: Test Example 1: (Measurement of GLP-1 Receptor Agonist Activity)
Human GLP-1 receptor stably expressing cells (hGLP-1R/CHO-K1 cells) are cultured in an α-MEM medium (Sigma) containing 10% FBS (Hyclone), 2% GlutaMAX (Gibco), 1% G418 (Nacalai Tesque), and 1% Penicillin-Streptomycin Mixed Solution (Sigma) at 37° C. under 5% CO2 conditions, and recovered by treating a 10 fold diluted 5.0 g/l-trypsin/5.3 mmol/l-EDTA solution (Nacalai Tesque) and cryopreserved.
A DMSO solution containing the compound of the present invention or human GLP-1 (7-36) (Phoenix Pharmaceuticals) is dispensed into a 384-well microplate (Greiner) at 62.5 nL/well, and in addition, 400 μM Forskolin (Nacalai Tesque) is dispensed therein at 7.5 nL/well. Subsequently, the frozen GLP-1 R/CHO-K1 cells are thawed in a thermostatic bath at 37° C., suspended in HBSS buffer (GIBCO) containing 0.1% BSA (Sigma), 20 mM HEPES (GIBCO), 0.1 mM IBMX (Sigma), and 0.2 mM RO20-1724 (Calbiochem) at 2×10^4 cells/mL, and the cell suspension is added at 6 μL/well. The solution was incubated at 37° C. for 1 hour and intracellular cAMP concentration is measured using cAMP Gs dynamic kit (Cisbio) according to the protocol attached to the product. Specifically, cAMP-d2 and Anti-cAMP-Cryptate are each added in an amount of 3 μL/well, the mixture is incubated at room temperature for 1 hour, and time-resolved fluorescence is measured using PHERAstar (BMG Labtech).
The dilution concentration or the dilution solvent are changed as necessary.
The compounds of the present invention were tested essentially as described above.

[1] = CHO-K1, hGLP-1R/CHO-K1 cells, cAMP, 100% = human GLP-1 (7-36) at 2 nM, 0% = DMSO only, read-out: Emax(%)
[2] = hGLP-1R/CHO-K1 cells, cAMP increase, 37° C. 1 hour
[3] = CHO-K1, maximum effect, cAMP increase in GLP-1 R/CHO-K1 cells, 2 nM human GLP-1 (7-36) = 100%, DMSO only = 0%, read-out: Emax
[4] = cAMP increase in GLP-1 R/CHO-K1 cells, 2 nM human GLP-1 (7-36) = 100%, DMSO only = 0%

T1 sequence (P43220 24-463): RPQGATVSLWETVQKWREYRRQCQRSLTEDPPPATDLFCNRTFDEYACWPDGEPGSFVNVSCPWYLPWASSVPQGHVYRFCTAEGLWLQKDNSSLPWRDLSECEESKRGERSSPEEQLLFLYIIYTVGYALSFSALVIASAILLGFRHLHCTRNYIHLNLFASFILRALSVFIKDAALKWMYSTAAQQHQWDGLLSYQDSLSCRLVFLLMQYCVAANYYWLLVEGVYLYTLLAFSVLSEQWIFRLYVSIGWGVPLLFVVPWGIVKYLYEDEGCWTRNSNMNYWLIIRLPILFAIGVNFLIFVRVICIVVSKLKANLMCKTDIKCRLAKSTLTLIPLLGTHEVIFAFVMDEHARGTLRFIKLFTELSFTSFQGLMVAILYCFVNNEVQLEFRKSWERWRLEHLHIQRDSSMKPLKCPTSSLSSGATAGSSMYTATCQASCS

Row | SMILES | Emax [1] [%] | EC50 [2] [nM] | Emax [3] [%] | EC50 [4] [nM]
1 | Cn1nnc2cc(COc3cc4c(cc3C(F)(F)F)CCN(Cc3nc5ccc(C(=O)O)cc5n3C[C@@H]3CCO3)C4)ccc21 [Compound I-072] | 127 | 12.6 |  | 
2 | C[C@H]1c2cc(OCc3c(F)cc(Cl)cc3F)c(C(F)(F)F)cc2CCN1Cc1nc2ccc(C(=O)O)cc2n1C[C@@H]1CCO1 [Compound I-114] | 132 | 0.604 |  | 
3 | C[C@H]1c2cc(OCc3ccc(C4CC4)cc3)c(Cl)cc2CCN1Cc1nc2ccc(C(=O)O)c(F)c2n1C[C@@H]1CCO1 [Compound I-321] |  |  | 84 | 9.85
4 | COc1cc(Cl)ccc1COc1nc2c(cc1C(F)(F)F)CCN(Cc1nc3ccc(C(=O)O)nc3n1C[C@@H]1CCO1)C2 [Compound I-303] |  |  | 119 | 0.681
5 | Cc1cc2c(cc1OCc1ccc(Cl)cc1F)C(=O)N(Cc1nc3ccc(C(=O)O)cc3n1C[C@@H]1CCO1)CC2 [Compound I-004] | 75.3 | 43.9 |  | 
6 | O=C(O)c1ccc2nc(CN3CCc4cc(C(F)(F)F)c(OCc5ccc(C(F)F)cc5)cc4C3)n(C[C@@H]3CCO3)c2c1 [Compound I-081] | 101 | 7.66 |  | 
7 | C[C@H]1c2nc(OCc3ccc(OC(F)F)cc3F)c(C(F)(F)F)cc2CCN1Cc1nc2c(F)cc(C(=O)O)cc2n1C[C@@H]1CCO1 [Compound I-370] |  |  | 109 | 0.143
8 | C[C@H]1c2nc(OCc3ccc(C#N)cc3F)c(C(F)(F)F)cc2CCN1Cc1nc2ccc(C(=O)O)c(F)c2n1C[C@@H]1CCO1 [Compound I-240] |  |  | 122 | 0.0648
9 | O=C(O)c1ccc2nc(CN3CCc4cc(C(F)(F)F)c(OCc5ccc(Cl)cc5F)cc4C3C(F)F)n(C[C@@H]3CCO3)c2c1 (mixture of isomers) [Compound I-066] | 124 | 8.72 |  | 
10 | COc1cc(C(=O)O)cc2c1nc(CN1CCc3cc(Cl)c(OCc4ccc(Cl)cc4F)cc3[C@@H]1C)n2C[C@@H]1CCO1 [Compound I-344] |  |  | 110 | 0.0824
11 | O=C(O)c1ccc2nc(CN3CCc4nc(C(F)(F)F)c(OCc5ccc(Cl)cc5F)cc4C3)n(C[C@@H]3CCO3)c2c1 [Compound I-062] | 98.3 | 11.6 |  | 
12 | C[C@H]1c2nc(OCc3ccc(Cl)cn3)c(C(F)(F)F)cc2CCN1Cc1nc2ccc(C(=O)O)cc2n1C[C@@H]1CCO1 [Compound I-247] |  |  | 121 | 0.351
13 | O=C(O)c1ccc2nc(CN3CCc4cc(C(F)(F)F)c(OCc5ccc(Cl)cc5F)cc4C3=O)n(C[C@@H]3CCO3)c2c1 [Compound I-030] | 92.3 | 3.56 |  | 
14 | C[C@H]1c2nc(OCc3ccc(F)cc3)c(C(F)(F)F)cc2CCN1Cc1nc2c(F)cc(C(=O)O)cc2n1C[C@@H]1CCO1 [Compound I-307] |  |  | 115 | 0.0609
15 | C[C@H]1c2cc(OCc3ccc(Cl)cc3Cl)c(C(F)(F)F)cc2CCN1Cc1nc2ccc(C(=O)O)c(F)c2n1C[C@@H]1CCO1 [Compound I-201] | 123 | 0.274 |  | 
16 | Cn1ccc(COc2cc3c(cc2C(F)(F)F)CCN(Cc2nc4ccc(C(=O)O)cc4n2C[C@@H]2CCO2)C3)n1 [Compound I-069] | 116 | 7.28 |  | 
17 | COc1cc(C(=O)O)cc2c1nc(CN1CCc3cc(C(F)(F)F)c(OCc4cc(F)c(Cl)cc4F)nc3[C@@H]1C)n2C[C@@H]1CCO1 [Compound I-378] |  |  | 95.3 | 0.0146
18 | O=C(O)c1ccc2nc(CN3CCc4cc(C(F)(F)F)c(OCc5ccc(Cl)cc5F)cc4C3)n(C[C@@H]3CCCO3)c2c1 [Compound I-040] | 147 | 37.7 |  | 
19 | O=C(O)c1ccc2nc(CN3CCc4cc(C(F)(F)F)c(OCc5ccc(Cl)cc5)nc4C3)n(C[C@@H]3CCO3)c2c1 [Compound I-264] |  |  | 121 | 2.36
20 | Cc1cc2c(cc1OCc1ccc(Cl)cc1)CN(Cc1nc3ccc(C(=O)O)cc3n1C[C@@H]1CCO1)CC2 [Compound I-016] | 79 | 50.3 |  | 

The next lines start with the values.

Row | Emax [1] [%] | EC50 [2] [nM] | Emax [3] [%] | EC50 [4] [nM] | SMILES
21 |  |  | 113 | 0.0964 | COc1cc(Cl)ccc1COc1nc2c(cc1C(F)(F)F)CCN(Cc1nc3ccc(C(=O)O)nc3n1C[C@@H]1CCO1)[C@H]2C [Compound I-350]
22 | 94 | 16.3 |  |  | O=C(O)c1ccc2nc(CN3CCc4cc(C(F)(F)F)c(OCc5c(F)cccc5Cl)cc4C3)n(C[C@@H]3CCO3)c2c1 [Compound I-158]
23 | 106 | 0.136 |  |  | COc1cc(Cl)ccc1COc1cc2c(cc1C(F)(F)F)CCN(Cc1nc3ccc(C(=O)O)c(F)c3n1C[C@@H]1CCO1)[C@H]2C [Compound I-196]
24 |  |  | 106 | 0.282 | COc1cc(C(=O)O)cc2c1nc(CN1CCc3cc(C(F)(F)F)c(OCc4ccc(F)cc4F)cc3[C@@H]1C)n2C[C@@H]1CCO1 [Compound I-231]
25 | 113 | 0.658 |  |  | C[C@H]1c2cc(OCc3ccc(Cl)cc3Cl)c(C(F)(F)F)cc2CCN1Cc1nc2ccc(C(=O)O)nc2n1C[C@@H]1CCO1 [Compound I-118]
26 | 104 | 2.24 |  |  | C[C@H]1c2cc(OCc3ccc(OC(F)F)cc3F)c(C(F)(F)F)cc2CCN1Cc1nc2ccc(C(=O)O)cc2n1C[C@@H]1CCO1 [Compound I-168]
27 |  |  | 119 | 0.102 | C[C@H]1c2nc(OCc3ccc(Cl)cn3)c(C(F)(F)F)cc2CCN1Cc1nc2ccc(C(=O)O)c(F)c2n1C[C@@H]1CCO1 [Compound I-355]
28 |  |  | 122 | 0.139 | COc1ccc(COc2nc3c(cc2C(F)(F)F)CCN(Cc2nc4ccc(C(=O)O)c(F)c4n2C[C@@H]2CCO2)[C@H]3C)cc1 [Compound I-354]
29 | 119 | 1.21 |  |  | C[C@H]1c2cc(OCc3ccc(F)cc3)c(C(F)(F)F)cc2CCN1Cc1nc2c(F)cc(C(=O)O)cc2n1C[C@@H]1CCO1 [Compound I-121]
30 |  |  | 110 |  | O=C(O)c1ccc2nc(CN3CCc4cc(C(F)(F)F)c(OCc5c(F)cc(Cl)cc5F)nc4C3)n(C[C@@H]3CCO3)c2c1 [Compound I-279]
31 |  |  | 94 | 7.87 | Cc1ccc(COc2cc3c(cc2Cl)CCN(Cc2nc4ccc(C(=O)O)nc4n2C[C@@H]2CCO2)[C@H]3C)cc1 [Compound I-313]
32 | 88 | 99.3 |  |  | Cc1cn(C)nc1COc1cc2c(cc1C(F)(F)F)CCN(Cc1nc3ccc(C(=O)O)cc3n1C[C@@H]1CCO1)C2 [Compound I-147]
33 |  |  | 125 | 0.236 | COc1cc(C(=O)O)cc2c1nc(CN1CCc3cc(Cl)c(OCc4ccc(Cl)cc4)cc3[C@@H]1C)n2C[C@@H]1CCO1 [Compound I-341]
34 | 109 | 4.29 |  |  | N#Cc1cc(Cl)ccc1COc1cc2c(cc1C(F)(F)F)CCN(Cc1nc3ccc(C(=O)O)cc3n1C[C@@H]1CCO1)C2 [Compound I-157]
35 |  |  | 125 | 0.0798 | COc1cc(Cl)ccc1COc1nc2c(cc1C(F)(F)F)CCN(Cc1nc3ccc(C(=O)O)cc3n1C[C@@H]1CCO1)[C@H]2C [Compound I-252]
36 |  |  | 103 | 0.3 | COc1cc(C(=O)O)cc2c1nc(CN1CCc3cc(C(F)(F)F)c(OCc4ccc(C)cc4)cc3[C@@H]1C)n2C[C@@H]1CCO1 [Compound I-227]
37 |  |  | 117 | 0.023 | C[C@H]1c2nc(OCc3c(F)cc(Cl)cc3F)c(C(F)(F)F)cc2CCN1Cc1nc2c(F)cc(C(=O)O)cc2n1C[C@@H]1CCO1 [Compound I-372]
38 | 103 | 9.98 |  |  | CCC1c2cc(OCc3ccc(Cl)cc3F)c(C(F)(F)F)cc2CCN1Cc1nc2ccc(C(=O)O)cc2n1C[C@@H]1CCO1 (mixture of isomers) [Compound I-044]
39 | 111 | 1.15 |  |  | O=C(O)c1ccc2nc(Cc3cc(F)c4nc(C(F)(F)F)c(OCc5ccc(Cl)cc5F)nc4c3)n(C[C@@H]3CCO3)c2c1 [Compound I-127]
40 |  |  | 115 | 0.42 | O=C(O)c1ccc2nc(CN3CCc4cc(C(F)(F)F)c(OCc5cc(F)c(Cl)cc5F)nc4C3)n(C[C@@H]3CCO3)c2c1F [Compound I-299]
41 |  |  | 78.7 | 109 | CC1c2cc(OCc3ccc(Cl)cc3F)ccc2CCN1Cc1nc2ccc(C(=O)O)cc2n1C[C@@H]1CCO1 (stereo partly drawn) [Compound I-025]
42 | 104 | 5.34 |  |  | COc1cc(F)c(COc2cc3c(cc2C(F)(F)F)CCN(Cc2nc4ccc(C(=O)O)cc4n2C[C@@H]2CCO2)C3)c(F)c1 [Compound I-153]
43 | 116 | 9.82 |  |  | Fc1cc(Cl)ccc1COc1cc2c(cc1C(F)(F)F)CCN(Cc1nc3ccc(-c4nnn[nH]4)cc3n1C[C@@H]1CCO1)C2 [Compound I-065]
44 | 117 | 1.23 |  |  | COc1cc(Cl)ccc1COc1cc2c(cc1C(F)(F)F)CCN(Cc1nc3ccc(C(=O)O)cc3n1C[C@@H]1CCO1)C2 [Compound I-139]
